Results published in ChEMBL document CHEMBL4513161, “CO-ADD screening of MMV (CH) - Pandemic Response Box” (2021).
In brackets after ≈: the same amount, converted by molar mass.

Legend:
[1] = system: Klebsiella pneumoniae; assay: microbe, parasite or virus in culture; settings: ATCC 700603, 18 h, ASSAY_TEST Inhibition of Bacterial Growth, detection method Absorption (OD600), MEDIA CAMHB, plate type 384well, NBS, CORNING #3640
Description: Antibacterial activity against Klebsiella pneumoniae MDR ATCC 70063 (CO-ADD:GN_003); MIC in CAMBH media using NBS plates, by OD(600)

[2] = system: Escherichia coli; assay: microbe, parasite or virus in culture; settings: ATCC 25922, 18 h, ASSAY_TEST Inhibition of Bacterial Growth, detection method Absorption (OD600), MEDIA CAMHB, plate type 384well, NBS, CORNING #3640
Description: Antibacterial activity against Escherichia coli ATCC 25922 (CO-ADD:GN_001); MIC in CAMBH media using NBS plates, by OD(600)

[3] = system: Candida albicans; assay: microbe, parasite or virus in culture; settings: ATCC 90028, ASSAY_TEST Inhibition of Fungal Growth, detection method Absorption (OD530), plate type 384well, NBS, CORNING #3640
Description: Antifungal activity against Candida albicans ATCC 90028 (CO-ADD:FG_001); MIC in YNB media using NBS plates, by OD630

[4] = system: Pseudomonas aeruginosa; assay: Antibacterial activity against Pseudomonas aeruginosa PAO397 [PAO1 d(mexAB-oprM) d(mexCD-oprJ) d(mexEF-oprN) d(mexJKL) d(mexXY) d(opmH)] (CO-ADD:GN_211); MIC in CAMBH media using NBS plates, by OD(600); type: functional; settings: ASSAY_TEST Inhibition of Bacterial Growth, detection method Absorption (OD600), MEDIA CAMHB, plate type 384well, CORNING #3640, time 18 hr
[5] = system: HEK293; assay: cells; type: functional, Homo sapiens, ATCC CRL1573; settings: Homo sapiens, ATCC CRL1573, HEK293; ASSAY_TEST Inhibition of Cell Viability; detection method Resazurin; Fluorescence (ex560/em590); MEDIA DMEM with 10% FBS; plate type 384well; TC; CORNING #3712; time 18 hr; read-out: CC50
[6] = system: Acinetobacter baumannii; assay: microbe, parasite or virus in culture; settings: ATCC 19606, 18 h, ASSAY_TEST Inhibition of Bacterial Growth, detection method Absorption (OD600), MEDIA CAMHB, plate type 384well, NBS, CORNING #3640
Description: Antibacterial activity against Acinetobacter baumannii ATCC 19606 (CO-ADD:GN_034); MIC in CAMBH media using NBS plates, by OD600

[7] = system: Cryptococcus neoformans
Description: Antifungal activity against Cryptococcus neoformans H99 ATCC 208821 (CO-ADD:FG_002); MIC in YNB media using NBS plates, by Resazurin OD(600-570)

[8] = system: Staphylococcus aureus; assay: microbe, parasite or virus in culture; settings: ATCC 43300, 18 h, ASSAY_TEST Inhibition of Bacterial Growth, detection method Absorption (OD600), MEDIA CAMHB, plate type 384well, NBS, CORNING #3640
Description: Antibacterial activity against Staphylococcus aureus MRSA ATCC 43300 (CO-ADD:GP_020); MIC in CAMBH media, using NBS plates, by OD(600)

[9] = system: Pseudomonas aeruginosa; assay: microbe, parasite or virus in culture; settings: ATCC 27853, 18 h, ASSAY_TEST Inhibition of Bacterial Growth, detection method Absorption (OD600), MEDIA CAMHB, plate type 384well, NBS, CORNING #3640
Description: Antibacterial activity against Pseudomonas aeruginosa ATCC 27853 (CO-ADD:GN_042); MIC in CAMBH media using NBS plates, by OD(600)

| MIC [1] [µM] | MIC [2] [µM] | MIC [3] [µM] | MIC [4] [µM] | MIC [6] [µM] | MIC [7] [µM] | MIC [8] [µM] | MIC [9] [µM] | SMILES | CC50 [5] [µM] |
| --- | --- | --- | --- | --- | --- | --- | --- | --- | --- |
| > 20 | > 20 | > 20 | > 20 | > 20 | > 20 | > 20 | > 20 | COc1ccc2c(c1)cc(CNC(=O)c1cc3ccccc3o1)n2CC(=O)O | > 20 |
| > 20 | > 20 | > 20 | > 20 | > 20 | > 20 | > 20 | > 20 | Oc1cc(-c2cccc3ccccc23)[nH]n1 | > 20 |
| > 20 | > 20 | > 20 | > 20 | > 20 | > 20 | > 20 | > 20 | C[C@H](c1cccc2ccccc12)N(C)Cc1ccccc1 | > 20 |
| > 20 | > 20 | > 20 | > 20 | > 20 | > 20 | 10 (≈ 3.08 µg/mL) | > 20 | CC(C)(C)c1cccc(-c2nc3cc(C(=N)N)ccc3[nH]2)c1O | > 20 |
| > 20 | > 20 | > 20 | > 20 | > 20 | > 20 | > 20 | > 20 | CC(C)c1ccc(COc2cccc(-c3cc([S+](C)[O-])c(C#N)c(=O)[nH]3)c2)cc1 (stereo not given) | > 20 |
| > 20 | > 20 | > 20 | > 20 | > 20 | > 20 | > 20 | > 20 | O=C(N[C@H](Cc1cccc2ccccc12)C(=O)NCCc1c[nH]cn1)C1Cc2ccccc2C1 | > 20 |
| > 20 | > 20 | > 20 | > 20 | > 20 | > 20 | > 20 | > 20 | C[C@H]1[C@@H](c2cccc(C(F)(F)F)c2)OC(=O)N1C(=O)NCc1cncc2ccccc12 | > 20 |
| > 20 | > 20 | > 20 | > 20 | > 20 | > 20 | > 20 | > 20 | O=C(CCc1ccc2c(c1)OCO2)NCc1ccc(-c2ccccc2F)cc1 | > 20 |
| > 20 | > 20 | > 20 | > 20 | > 20 | > 20 | > 20 | > 20 | CC(C)(C)c1ccc(C(=O)NC(=O)N2CCCc3ccccc32)cc1 | > 20 |
| > 20 | > 20 | > 20 | > 20 | > 20 | > 20 | > 20 | > 20 | Cc1cc(NS(=O)(=O)c2ccc(-c3ccc(F)cc3F)cc2)no1 | > 20 |
| > 20 | > 20 | > 20 | > 20 | > 20 | > 20 | > 20 | > 20 | COc1cc(C2C3=C(CC(C)(C)CC3=O)Nc3ccccc3N2C(C)=O)ccc1OCc1ccccc1 (stereo not given) | > 20 |

More lines, now with the values behind:

| SMILES | MIC [1] [µM] | MIC [2] [µM] | MIC [3] [µM] | MIC [4] [µM] | MIC [6] [µM] | MIC [7] [µM] | MIC [8] [µM] | MIC [9] [µM] | CC50 [5] [µM] |
| --- | --- | --- | --- | --- | --- | --- | --- | --- | --- |
| CCCCc1ccc(S(=O)(=O)Nc2cc(C)on2)cc1 | > 20 | > 20 | > 20 | > 20 | > 20 | > 20 | > 20 | > 20 | > 20 |
| O=[N+]([O-])/C(Br)=C/c1ccc(Br)o1 | > 20 | > 20 | 20 (≈ 5.94 µg/mL) | > 20 | > 20 | 20 (≈ 5.94 µg/mL) | > 20 | > 20 | > 20 |
| C[C@H]1CC[C@]2(NC1)O[C@H]1C[C@H]3[C@@H]4CC[C@H]5C[C@@H](O)CC[C@]5(C)[C@H]4CC[C@]3(C)[C@H]1[C@@H]2C | > 20 | > 20 | 20 (≈ 8.31 µg/mL) | > 20 | > 20 | > 20 | > 20 | > 20 | > 20 |
| O=C(NNC(=S)Nc1ccc(Cl)cc1)c1ccncc1 | > 20 | > 20 | > 20 | > 20 | > 20 | > 20 | > 20 | > 20 | > 20 |
| O=C(NCc1ncc(C(F)(F)F)cc1Cl)c1c(Cl)cccc1Cl | > 20 | > 20 | > 20 | > 20 | > 20 | > 20 | > 20 | > 20 | > 20 |
| CCCCCCC1c2ccc(O)cc2Oc2cc(O)ccc21 | > 20 | > 20 | > 20 | > 20 | > 20 | > 20 | > 20 | > 20 | > 20 |
| CCC(C)(C)c1ccc(CC(C)CN2C[C@@H](C)O[C@@H](C)C2)cc1 (stereo not given in full) | > 20 | > 20 | 2.5 (≈ 0.794 µg/mL) | > 20 | > 20 | > 20 | > 20 | > 20 | > 20 |
| O=C(Nc1[nH]c(=O)ncc1F)c1ccccc1 | > 20 | > 20 | > 20 | > 20 | > 20 | > 20 | > 20 | > 20 | > 20 |
| CNc1nc(=O)[nH]cc1F | > 20 | > 20 | > 20 | > 20 | > 20 | > 20 | > 20 | > 20 | > 20 |
| OB1OCc2c1ccc(Cl)c2F | > 20 | > 20 | 10 (≈ 1.86 µg/mL) | > 20 | > 20 | 20 (≈ 3.73 µg/mL) | > 20 | > 20 | > 20 |
| O=C(NC(=O)N1CCCc2ccccc21)c1ccc(Cl)cc1Cl | > 20 | > 20 | > 20 | > 20 | > 20 | > 20 | > 20 | > 20 | > 20 |
| Clc1cc(Cl)c2c(c1)CCc1ccccc1C2n1ccnc1 (stereo not given) | > 20 | > 20 | 5 (≈ 1.65 µg/mL) | 20 (≈ 6.58 µg/mL) | > 20 | 20 (≈ 6.58 µg/mL) | 20 (≈ 6.58 µg/mL) | > 20 | > 20 |
| CCCNc1ccc(S(=O)(=O)Nc2cc(C)on2)cc1 | > 20 | > 20 | > 20 | > 20 | > 20 | > 20 | > 20 | > 20 | > 20 |
| O=C1c2cccc3cccc(c23)C(=O)N1CC1CO1 (stereo not given) | > 20 | > 20 | > 20 | > 20 | > 20 | > 20 | 20 (≈ 5.07 µg/mL) | > 20 | 4.49 |
| COC(=O)Nc1nc2c(C)cccc2[nH]1 | > 20 | > 20 | > 20 | > 20 | > 20 | > 20 | > 20 | > 20 | > 20 |
| N#C/C(=C1/SC[C@H](c2ccc(Cl)cc2Cl)S1)n1ccnc1 | > 20 | > 20 | 0.312 (≈ 0.111 µg/mL) | > 20 | > 20 | 0.625 (≈ 0.221 µg/mL) | > 20 | > 20 | > 20 |
| O=C(/C(=C/c1ccc(Cl)cc1Cl)n1ccnc1)c1ccc(Cl)cc1 | > 20 | > 20 | 10 (≈ 3.78 µg/mL) | > 20 | > 20 | 20 (≈ 7.55 µg/mL) | 20 (≈ 7.55 µg/mL) | > 20 | 5.19 |
| CN(C)c1[nH]c(=O)ncc1F | > 20 | > 20 | > 20 | > 20 | > 20 | > 20 | > 20 | > 20 | > 20 |
| O=C(NC(=O)N1CCCc2ccccc21)c1cccc(Cl)c1 | > 20 | > 20 | > 20 | > 20 | > 20 | > 20 | > 20 | > 20 | > 20 |
